The source of these data is patent publication EP1169483B1, “VARIATION IN DRUG RESPONSE RELATED TO POLYMORPHISMS IN BETA2- ADRENERGIC RECEPTOR” (UNIVERSITY OF CINCINNATI, priority 1999, dated 2001).

Data set [1] deals with Ile164 receptor. The note with it: cited from earlier work; for binding affinity: competition with [125I]cyp in the presence of GTP, Ile164 receptor.
The test system of data set [2] is Ile164 receptor. The note with it: Ile164 receptor compared to Thr164 receptor; cited from earlier work.
The next data set concerns human Ile164 receptor. As to conditions: transgenic mice overexpressing human Ile164 receptor in the heart compared to wild-type receptor; cited from earlier work.
The next data set has as its system Thr164 receptor. The note with it: COS-7 cells transiently transfected; salmeterol 10 minutes at 37 °C, perfused with saline 30 min; n = 5, p = 0.02.

SMILES strings stand for the structures.

Method for Thr164 receptor: The exosite binding studies were carried out by methods as described in reference 4. Briefly, COS-7 cells were transiently transfected with constructs consisting of Thr164 or Ile164 cDNAs in the vector pBC12BI as previously described (4). Cells were grown in 35 mm dishes as monolayers. […] The media was removed, and cells perfused with saline at a rate of 20 ml/min for 30 min. Cells were detached by scraping and cell membranes prepared. […] Reactions were run for 2 hrs at 25 °C. Bound radioligand was separated from unbound by vacuum filtration over Whatman GF/C filters, which were counted in a gamma counter at 70% efficiency. Specific binding was defined as total minus non-specific binding, corrected for protein.

On to `CNC[C@H](O)c1ccc(O)c(O)c1` [epinephrine], for which the binding affinity result with Ile164 receptor [1] is “small decrease in binding affinity”. The “stimulation of adenylyl cyclase” value in the data set with Ile164 receptor [2] is “decreased stimulation”.
With `CC(C)NCC(O)c1ccc(O)c(O)c1` (stereo not shown) [isoproterenol], the “adenylyl cyclase activity in response to agonist” value in the data set on human Ile164 receptor is “lowered activities”. Besides, the binding affinity entry in the data set on Ile164 receptor [1] is recorded as “small decrease in binding affinity”. In addition, the binding curves entry with Ile164 receptor [1] (in the absence of GTP, Ile164 compared to Thr164 receptor (Figure 2)) is reported as “different between the two receptors”.
As for `NC[C@H](O)c1ccc(O)c(O)c1` [norepinephrine], the binding affinity result in the data set with Ile164 receptor [1] was “small decrease in binding affinity”.
On to `OCc1cc(C(O)CNCCCCCCOCCCCc2ccccc2)ccc1O` (stereo not shown) [salmeterol], for which the salmeterol exosite binding in the data set on Thr164 receptor came to 49 ± 4%.
